“Also recorded” adds a separate entry of the source.
Key:
Format in all cases: cell-based, maize
ATCC40520 microspores [1] = test: Microspore embryogenesis in ATCC40520 microspore culture with hemin, MCS/ELS phenotype scoring; settings: 1 μM hemin
Experimental: Following microspore isolation, ATCC40520 microspores (see U.S. Pat. No. 5,602,310 incorporated herein by reference in its entirety) were cultured in a petri dish in a 9% sucrose induction medium as a control or a 9% sucrose induction medium supplemented with a 1 μM final concentration of hemin (Sigma-Aldrich, catalog # H9039) at 28° C. under dark conditions.
(§1) Following microspore isolation, ATCC40520 microspores and EH, anelite inbred, that is known to be less responsive relative to the ATCC40520 genotype, were each individually cultured in a petri dish in a 9% sucrose induction medium as a control or a 9% sucrose induction medium supplemented with a 1 μM final concentration of hemin at 28° C. under dark conditions.
(§2) Microspore phenotypes were scored for each of ATCC40520 and EH after 21 days of treatment (+/− hemin). A multicellular structure (MCS) phenotype was scored when a unicellular-derived structure resulting from randomly oriented divisions within a surrounding, intact exine wall was observed. If the surrounding exine was ruptured and a release of cells was observed, then the response was scored as a proliferative embryo-like structure (ELS).

ATCC40520 microspores [2] = test: Gene expression analysis of embryo-like structures from control and hemin-treated ATCC40520 cultures; settings: 1 μM hemin, 8 days in vitro culture, vs control
Experimental: Following microspore isolation, ATCC40520 microspores (see U.S. Pat. No. 5,602,310 incorporated herein by reference in its entirety) were cultured in a petri dish in a 9% sucrose induction medium as a control or a 9% sucrose induction medium supplemented with a 1 μM final concentration of hemin (Sigma-Aldrich, catalog # H9039) at 28° C. under dark conditions. After 8 days of in vitro tissue culture, four biological replicates of proliferating embryo-like structures were sampled from each of the control and the hemin-treated ATCC40520 tissue cultures for embryogenesis induction and processed for gene expression analysis using methods known in the art (data not shown).

inbred EH microspores [3] = test: Microspore embryogenesis in inbred EH microspore culture with hemin, MCS/ELS phenotype scoring; settings: 1 μM hemin
Experimental: as §1, §2

inbred EH microspores [4] = test: Ex situ treatment of isolated microspores with purified ZmWUS2-hexa histidine-tag protein
Experimental: WUSCHEL protein expression and purification was performed using a heterologous expression system expressing a plasmid encoding a ZmWUS2-hexa histidine-tag (SEQ ID NO:1) sequence transformed into DH10Bac cells (Thermo Fisher Scientific catalog #10361012) to generate baculoviruses. Baculovirus-infected SF9 insect cells (Thermo Fisher Scientific catalog #12552014) were incubated for 72 hours at 27° C. The infected insect cells were harvested by centrifugation. Purification of the recombinant ZmWUS2-hexa histidine-tag protein (SEQ ID NO:2) was performed using commercially available protein purification methods Following microspore isolation from inbred EH, ZmWUS2-hexa histidine-tag protein treatments were performed for each culture by combining 505 μL of a 4% sucrose induction media, 37.5 μL of molecular grade bovine serum albumin (BSA; 20 mg/ml) (Sigma-Aldrich catalog # B8667) and 7.5 μL of protease inhibitor (Sigma-Aldrich catalog # P9599) and with 250 μL of the purified recombinant ZmWUS2-hexa histidine-tag protein. After gently mixing, the solution was filter sterilized within a sterile environment using a 0.2 μm filter (Pall Corporation catalog #4612). Optionally, an isolation medium was buffered with L-glutathione reduced (Sigma-Aldrich catalog #G4251). […]

[5] = system: microspores isolated from a F1 hybrid tassel of an EHxGR genetic cross; test: Protein transfection of microspores with ZmWUS2-hexa histidine-tag protein with or without Pro-Ject reagent
Experimental: Transfection reagent preparation using the cationic lipid based Pro-Ject™ transfection reagent (Thermo Fisher Scientific catalog #89850) was performed by adding 250 μL of methanol to the tube containing the dried transfection reagent, vortexing for 30 seconds at top speed, and dispensing 10 μL of Pro-ject™ plus methanol to 1.5 mL Eppendorf tubes. The transfection reagent was evaporated from the tubes within a chemical fume hood for 4 hours drying time at room temperature and the tubes were stored the tubes at −20° C. until use. Upon use, 100 μL of isolation medium containing 50 ng of the purified ZmWUS2-hexa histidine-tag protein was added to each tube and 900 μL microspore culture medium was dispensed into each transfection tube to re-hydrate the transfection reagent and encapsulate the protein. The 1 mL volume of this solution was combined with a 1 mL volume of microspores isolated from a F1 hybrid tassel of an EHxGR genetic cross. The microspores were suspended in isolation medium and each 2 mL volume was dispensed into a well of a 24 well microtiter plate (Lab Safety Supply catalog #11L794). The isolation medium was further supplemented with bovine serum albumin, protease inhibitor and L-glutathione reduced, with or without the cationic lipid-based Pro-Ject™ transfection reagent, and with or with the ZmWUS2-hexa histidine-tag protein treatments (ZmWUS2-hexa histidine-tag protein buffer as a control for comparison to the ZmWUS2-hexa histidine-tag protein). Each plate was sealed with parafilm and incubated at 28° C. under dark conditions. […] After 18 days, all cells were collected and rinsed using 70 μm Fisherbrand™ cell strainer and evaluated for the activation of cellular reprogramming and the induction of microspore embryogenesis. Microspore viability was scored by counting plasmolyzed, collapsed cells (i.e. “non-viable”) and translucent, spherical cells corresponding to the original state (i.e. “viable”).

isolated microspores [6] = test: Microspore electroporation with ZmWUS2-hexa histidine-tag protein; settings: in combination with electroporation, vs no protein and no electroporation
Experimental: A Neon® Transfection System (Thermo Fisher Scientific catalog #MPK5000) and Neon® kit (Thermo Fisher Scientific catalog #MPK10025) is used per the manufacturer's instructions. The ex situ ZmWUS2-hexa histidine-tag protein treatment is prepared by mixing 12.5 μL of ZmWUS2-hexa histidine-tag protein (SEQ ID NO:2; 10 μg total, 0.8 μg/μL stock) with 12.5 μL Lipofectamin 3000 followed by 30 minutes incubation at room temperature. Sucrose is added to the resuspension buffer (buffer R) to a 0.4 M final concentration and filter sterilized. Isolated microspores are resuspended in a 2% (V/V) dimethyl sulfoxide (DMSO)/9% suscrose induction medium solution and incubated for 15 minutes at room temperatures, the microspores are pelleted, and the supernatant is removed. The microspores are washed three times with phosphate buffered saline (PBS; Gibco™ 10010023), resuspended in Electrolytic Buffer E (Thermo Fisher Scientific catalog #MPK5000) and mixed with the ZmWUS2-hexa histidine-tag protein/Lipofectamine 3000 solution followed by room temperature incubation for 10 minutes and then incubation on ice for 10 minutes. DMSO-mediated electroporation was used to increase ZmWUS2-hexa histidine-tag protein uptake into isolated microspores through multiple pulse conditions. […]

isolated microspores [7] = test: Ex situ treatment of isolated microspores with GAMMA ZEIN-ZmWUS2-hexa histidine-tag protein; settings: vs microspores cultured without the protein
Experimental: GAMMA ZEIN-ZmWUS2-hexa histidine-tag protein expression and purification is performed using a heterologous expression system expressing a plasmid encoding a GAMMA ZEIN-ZmWUS2-hexa histidine-tag (SEQ ID NO:46) sequence transformed into DH10Bac cells to generate baculoviruses. Baculovirus-infected SF9 insect cells are incubated for 72 hours at 27° C. The infected insect cells are harvested by centrifugation. Purification of the recombinant GAMMA ZEIN-ZmWUS2-hexa histidine-tag protein (SEQ ID NO:47) is performed as described in EXAMPLE 3.

[8] = 21 days, vs control EH microspores

## hemin
ATCC40520 microspores [1]; 9% sucrose induction medium, 21 days, vs control
  cellular proliferation and development of embryo-like structures (ELS): increased cellular proliferation and the development of embryo-like structures (ELS)
ATCC40520 microspores [1]; 21 days
  quality of the embryo-like structures (proportion of spherical vs non-spherical embryoids): improved the quality of the embryo-like structures
ATCC40520 microspores [1]; after 21 days of treatment (+/- hemin)
  number of ELS in responsive cultures: approximately doubled
ATCC40520 microspores [2]
  expression of embryogenic transcripts: increased expression of embryogenic transcripts
  expression of pollen associated transcripts: decreased expression of pollen associated transcripts
Inbred EH microspores [3]; 21 days of culture, vs control
  cellular proliferation in responsive cultures: increased cellular proliferation
Inbred EH microspores [3]; [8]
  percentage of microspores scored with the ELS phenotype: increased
  percentage of microspores scored with the MCS phenotype: increased

B1: ZmWUS2-hexa histidine-tag protein: Purified recombinant Zea mays WUSCHEL2 hexahistidine-tagged protein (SEQ ID NO:2) from baculovirus-infected SF9 insect cells (protein)
chain: MAANAGGGGAGGGSGSGSVAAPAVCRPSGSRWTPTPEQIRMLKELYYGCGIRSPSSEQIQRITAMLRQHGKIEGKNVFYWFQNHKARERQKRRLTSLDVNVPAAGAADATTSQLGVLSLSSPPPSGAAPPSPTLGFYAAGNGGGSAVLLDTSSDWGSSGAAMATETCFLQDYMGVTDTGSSSQWPRFSSSDTIMAAAAARAATTRAPETLPLFPTCGDDGGSGSSSYLPFWGAASTTAGATSSVAIQQQHQLQEQYSFYSNSNSTQLAGTGNQDVSATAAAAAALELSLSSWCSPYPAAGSMGHHHHHH
modifications: hexahistidine tag
Inbred EH microspores [4]; recalcitrant elite inbred, 4% sucrose induction media, vs culture without protein
  microspore responsiveness and embryogenesis induction: improved microspore responsiveness and embryogenesis induction
Inbred EH microspores [4]; wild type microspores treated with purified protein
  embryoid development (morphology): revealed a suspensor with root hairs; also recorded: A microspore-derived embryo with a developed radicle and root hairs was observed
[5]; 72 hours post-isolation, 4% sucrose liquid induction medium, on average
  improvement in cell viability: 5.1 fold
[5]; combined with cationic lipid-based Pro-Ject transfection reagent, 18 days
  cell proliferation / activation of cellular reprogramming and induction of microspore embryogenesis: cell proliferation was seen
[5]; without transfection reagent, vs control without protein
  cell viability after 18 days of culture: fewer cells were viable in the control treatment
Isolated microspores [6]
  microspore responsiveness and embryogenesis induction: improved microspore responsiveness and embryogenesis induction

B2: GAMMA ZEIN-ZmWUS2-hexa histidine-tag protein: Gamma-zein cell penetrating peptide WUSCHEL hexahistidine-tagged translational fusion protein (SEQ ID NO:47) (protein)
chain: VRLPPPVRLPPPLVRPPPLHHHHHHMAANAGGGGAGGGSGSGSVAAPAVCRPSGSRWTPTPEQIRMLKELYYGCGIRSPSSEQIQRITAMLRQHGKIEGKNVFYWFQNHKARERQKRRLTSLDVNVPAAGAADATTSQLGVLSLSSPPPSGAAPPSPTLGFYAAGNGGGSAVLLDTSSDWGSSGAAMATETCFLQDYMGVTDTGSSSQWPRFSSSDTIMAAAAARAATTRAPETLPLFPTCGDDGGSGSSSYLPFWGAASTTAGATSSVAIQQQHQLQEQYSFYSNSNSTQLAGTGNQDVSATAAAAAALELSLSSWCSPYPAAGSMGHHHHHH
modifications: WUS-HISTAG-GZCPP protein sequence
Isolated microspores [7]
  microspore responsiveness and embryogenesis induction: improved microspore responsiveness and embryogenesis induction

Source: patent US11447786B2, “Systems and methods for cellular reprogramming of a plant cell” (PIONEER HI-BRED INTERNATIONAL, INC., priority 2017, dated 2022)
